In article PMC9289467, “A Novel Multifunctional 5,6-Dimethoxy-Indanone-Chalcone-Carbamate Hybrids Alleviates Cognitive Decline in Alzheimer’s Disease by Dual Inhibition of Acetylcholinesterase and Inflammation” (Frontiers in Aging Neuroscience, 2022):

Columns and labels:
Assay type in all cases: in vivo
C3 within astrocytes = test: C3 and GFAP co-immunostaining (A1 astrocyte marker); conditions: AP5-treated vs APP/PS1 mice
Description: (§1) APP/PS1 mice of ages 6 months were randomly divided into vehicle (APP/PS1, n = 10) and treatment groups (AP5, n = 10), which were intragastrically administered with AP5 (40 mg/kg) once daily for consecutive 5 months. AP5 was dissolved in distilled water containing 1% sodium carboxymethyl cellulose.
The fixed hemibrains were paraffin-embedded and sectioned in the coronal plane. The slices were deparaffinized with xylene and rehydrated by a series of gradient alcohols. Antigen retrieval through microwave boiling was performed with 10 mM sodium citrate solution at pH 6.0. The slices were cooled down to room temperature and then rinsed in PBS solution. […]
(1:100, BAF2655, R&D, Minneapolis, MN, USA). […] For the quantification of Aβ plaque-associated microglia and astrocyte, Iba1- and GFAP-immunopositive cells around plaques were counted. On each slide, ten plaques were randomly determined and the microglia (nuclei) in the immediate vicinity (two times the plaque diameter) of each plaque were counted. For colocalization of PSD95 and synaptophysin, images were analyzed with the puncta analyzer plugin with a minimum pixel specification of 4 in Image Jand thresholding was consistent for every image. […]
anti-synaptophysin (1:1000, 67864-1-lg, Proteintech) overnight at 4°C. […] Densitometric analysis was performed using Quantity One software (Bio-Rad, Berkeley, CA, USA). […]

recognition memory = test: Spatial object location task; conditions: at 24 h, vs APP/PS1 mice without treatment
Description: as §1
To investigate whether AP5 treatment plays a key role in cognition improvement of APP/PS1 mice models, the five different behavioral tests were sequentially carried out in the following order: open field, novel object recognition task, spatial object-location task, Y-maze, and Morris water maze (MWM). AP5 was also administered daily during the test periods. […]
For the spatial object location task (an object moved to a new location), mice first explored the two objects placed in two corners of the open field for 5 min in training period. After 1 h or 24 h, the mice received a 5 min retention trial with a new spatial configuration with an object moved from one corner to the opposite corner of the open field.The discrimination index was calculated and defined as: (time spent exploring the displaced object-time spent exploring nondisplaced objects) / total exploration time for the two objects during the 5 min retention trial. […]
guided to platform and allowed to stay on it for 30 s. The time (escape latency) for each mouse to find the way and reach the target platform was analyzed. […]

CD11c within microglia = test: CD11c and Iba1 co-immunostaining (DAM marker); conditions: AP5-treated vs APP/PS1 mice
Description: as §1
The fixed hemibrains were paraffin-embedded and sectioned in the coronal plane. The slices were deparaffinized with xylene and rehydrated by a series of gradient alcohols. Antigen retrieval through microwave boiling was performed with 10 mM sodium citrate solution at pH 6.0. The slices were cooled down to room temperature and then rinsed in PBS solution. Then the slices were incubated in 10% goat serum blocking solution for 1 h followed by primary antibodies overnight at 4°C. The next day, the slides were labeled with biotinylated or fluorescent secondary antibodies. Slices were washed three times with PBS before being mounted. Images were captured using a SpinSR10 scanner (Olympus, Tokyo, Japan). […]
Cambridge, UK) or anti-GFAP (1:100, bs-0199R, Bioss) at4 °C. After being washed with PBS, slides were treated with a biotinylated secondary antibody for 30 min and with streptavidin-peroxidase complex for another 30 min at 37°C. Immunostaining was visualized with 3,3′-diaminobenzidine (DAB, ZL1-9018, Zhongshan Jinqiao, Beijing, China ).The images were acquired using a Nikon microscope (Nikon, […]

SMILES: CCN(C)C(=O)Oc1cccc(/C=C2\Cc3cc(OC)c(OC)cc3C2=O)c1 [AP5, (E)-3-((5,6-dimethoxy-1-oxo-1,3-dihydro-2H-inden-2-ylidene)-methyl)phenylethyl(methyl)carbamate]
- C3-positive area within the astrocytes (C3 within astrocytes): markedly reduced
- discrimination index, spatial object location (recognition memory): significantly better
- CD11c-positive area within the activated microglia (CD11c within microglia): significantly elevated
